Reference: patent publication US11000516B2 (priority 2015, dated 2021)

Legend:
[1] = test system: EDEN1 (clinical DENV1 isolate); assay: Antiviral effect in HuH-7 cells, plaque assay of supernatant 48 h pi; type: cell-based
Description: (§1) Cells were infected with DENV strains for 1 hour at 37° C. and washed once with culture media. […] The supernatants were subjected to standard plaque assay and the EC50 values were determined using the GraphPad Prism software.
(§2) NITD008, an adenosine analog inhibitor of DENV polymerase (Yin et al., 2009) was used as a positive control.

[2] = test system: EDEN2 (clinical DENV2 isolate); assay: as above; type: cell-based
Description: as §1, §2

[3] = test system: S221 (mouse-adapted DENV2 strain); assay: as above; type: cell-based
Description: as §1, §2

[4] = test system: EDEN1 (clinical DENV1 isolate); assay: Ab-mediated infection of THP-1 cells with enhancing concentration of 4G2 Ab; type: cell-based; conditions: EDEN1, MOI 2, single experiment
Description: as §1, §2

[5] = test system: EDEN2 (clinical DENV2 isolate); assay: as above; type: cell-based; conditions: EDEN2, MOI 50, single experiment
Description: as §1, §2

[6] = test system: S221 (mouse-adapted DENV2 strain); assay: as above; type: cell-based; conditions: S221, MOI 2, single experiment
Description: as §1, §2

EDEN1, EDEN2, S221 = assay: Antiviral effect in BHK-21 cells, all virus strains; type: cell-based, DENV; conditions: Dengue virus
Description: as §1, §2

DENV2 strain #013 [7] = assay: CELADEN clinical strain in HuH-7 cells, single concentration, virus titer by plaque assay; type: cell-based; conditions: strain #013, celgosivir 3 mM, 48 hours pi
Description: (§3) EDEN1, EDEN2 and S221 were used as control virus strains. The MOI of each strain was indicated in supplementary FIG. 2. After 48 hours pi, virus titer in the supernatants was determined by standard plaque assay using BHK-21 cells. The percentages of virus titer were calculated based on virus infection control of each strain. Error bars indicate standard deviations from duplicate experiments. (B and C) Mice were inoculated i.v. with DENV2 strains, #031 (2×10^7 pfu), #013 (1×10^7 pfu) or #036 (2×10^7 pfu). […] Average viral copy numbers on day 1-2 were measured using mixed serum of each group. Viral copy number on day 3 was measured individually and the graphs show the average results with standard deviations. A P value less than 0.05 was considered significant (*P<0.05). […] Viral copy number on day 3-6 was measured individually and shown in the graphs as the average results with standard deviations. The VLR from day 3 to day 6 was also shown as the mean value and standard deviations. The number of mice per group is 6.
(§4) Total 16 clinical DENV virus were recovered from serum of CELADEN trial patients with 8 of either DENV1 or DENV2 infection. […] The MOI was varied among strains to obtain similar levels of virus titer (within 10-fold difference). The MOI was 0.01 (EDEN1), 0.1 (#005, #048, #004, #033, #010, #013, #022, #036), 0.2 (#016, #017, #011, EDEN2, S221), 0.5 (#049, #038), 1 (#028, #031) and 2 (#025). After 48 hours post-infection, virus titer in the supernatants was determined by standard plaque assay using BHK-21 cells. Error bars indicate standard deviations from duplicate experiments.
(§5) Since infection levels in HuH-7 cells are different among the strains, the MOI of each strain was varied to obtain similar levels of virus titer in the supernatant (FIG. 8).

DENV2 strain #031 [8] = assay: as above; type: cell-based; conditions: strain #031, celgosivir 3 mM, 48 hours pi
Description: as §3, §4, §5

DENV2 strain #036 [9] = assay: as above; type: cell-based; conditions: strain #036, celgosivir 3 mM, 48 hours pi
Description: as §3, §4, §5

DENV2 strain #013 [10] = assay: Non-lethal mouse model with CELADEN strain; type: in vivo, mice
Description: as §3, §5

DENV2 strain #031 [11] = assay: Non-lethal mouse model with CELADEN strain; type: in vivo, mice
Description: as §3, §5

DENV2 strain #036 [12] = assay: Non-lethal mouse model with CELADEN strain; type: in vivo, mice
Description: as §3, §5

[13] = human, cited from earlier work
[14] = Dengue virus, DENV2, THP-1, THP-1 with 4G2 Ab

Question: For `CCCC(=O)O[C@H]1CN2CC[C@H](O)[C@@H]2[C@@H](O)[C@@H]1O` [celgosivir], which EC50 ([1]; HuH-7, EDEN1, MOI 0.01) is on record?
Answer: Its EC50 is 5.96 µM.

Question: What about the EC50 ([1]; HuH-7, EDEN1, MOI 0.3) of the same molecule?
Answer: The EC50 was 17.4 µM.

Question: What about the EC50 ([1]; Huh-7, HuH-7, EDEN1, MOI 0.01) of the same molecule?
Answer: The EC50 was 6 µM.

Question: What about the EC50 ([1]; Huh-7, HuH-7, EDEN1, MOI 0.3) of the same molecule?
Answer: Its EC50 is 17.4 µM.

Question: What about the EC50 ([2]; Dengue virus, DENV2, Huh-7, HuH-7, EDEN2, MOI 0.3) of the same molecule?
Answer: Its EC50 is 0.82 µM.

Question: And the EC50 ([2]; HuH-7, EDEN2, MOI 0.3)?
Answer: The EC50 was 0.824 µM.

Question: And the EC50 ([3]; Dengue virus, DENV2, Huh-7, HuH-7, S221, MOI 0.3)?
Answer: Its EC50 is 5.1 µM.

Question: And the EC50 ([3]; HuH-7, S221, MOI 0.3)?
Answer: Its EC50 is 5.09 µM.

Question: What about the EC50 ([4]; THP-1, THP-1 with 4G2 Ab) of the same molecule?
Answer: The EC50 was 3.2 µM.

Question: And the EC50 ([4]; THP-1 with 4G2 Ab)?
Answer: The EC50 was 3.24 µM.

Question: And the EC50 [5, 14]?
Answer: The EC50 was 0.8 µM.

Question: What about the EC50 ([5]; THP-1 with 4G2 Ab) of the same molecule?
Answer: Its EC50 is 0.756 µM.

Question: And the EC50 [6, 14]?
Answer: Its EC50 is 2.1 µM.

Question: What about the EC50 ([6]; THP-1 with 4G2 Ab) of the same molecule?
Answer: Its EC50 is 2.14 µM.

Question: What about the EC50 (EDEN1, EDEN2, S221) of the same molecule?
Answer: Its EC50 is < 0.2 µM.

Question: And the “reduction in virus titer in the supernatant of HuH-7 cells” value (from here on “reduction in virus titer”) (DENV2 strain #013 [7])?
Answer: Its value is 67%.

Question: And the “reduction in virus titer” value (DENV2 strain #031 [8])?
Answer: The value was 52%.

Question: And the “reduction in virus titer” value (DENV2 strain #036 [9])?
Answer: The value was 70%.

Question: What about the “viremia reduction on day 3 pi” value (DENV2 strain #013 [10]; #013, 50 mg/kg BID from time of infection) of the same molecule?
Answer: Its value is 6.8 fold.

Question: And the “VLR from day 3 to day 6” value (DENV2 strain #013 [10]; #013, 50 mg/kg BID started during peak viremia (day 3))?
Answer: Its value is 2.32.

Question: What about the “viremia reduction on day 3 pi” value (DENV2 strain #031 [11]; #031, 50 mg/kg BID from time of infection) of the same molecule?
Answer: Its value is 7.8 fold.

Question: What about the “VLR from day 3 to day 6” value (DENV2 strain #031 [11]; #031, 50 mg/kg BID started during peak viremia (day 3)) of the same molecule?
Answer: The value was 2.63.

Question: And the “viremia reduction on day 3 pi” value (DENV2 strain #036 [12]; #036, 50 mg/kg BID from time of infection)?
Answer: The value was 12.5 fold.

Question: And the “VLR from day 3 to day 6” value (DENV2 strain #036 [12]; #036, 50 mg/kg BID started during peak viremia (day 3))?
Answer: The value was 2.14.

Question: And the adverse event profile ([13]; CELADEN study regimen)?
Answer: Its adverse event profile is “higher incidence of GI effects, but not increased severity”.

Question: What about the “maximum daily dose, total dose” value ([13]; in theory) of the same molecule?
Answer: Its value is ≤ 600 mg.

Question: What about the “maximum dose as a single dose” value ([13]; in theory) of the same molecule?
Answer: Its value is ≤ 400 mg.
